Laboratory results: paper PMC9102502, “The Influence of Selected Antipsychotic Drugs on Biochemical Aspects of Alzheimer’s Disease” (International Journal of Molecular Sciences, 2022)

Legend:
[1] = target: T1, recombinant human β-amyloid (1–42) (Homo sapiens, UniProt P05067); experiment: Beta-amyloid aggregation, Thioflavin T fluorescence; assay type: biochemical; settings: 24 and 48 h; both tested concentrations
T1 construct: recombinant human β-amyloid (1–42; ultrapure); purchased Sigma-Aldrich (St. Louis, MO, USA)
T1 sequence (P05067 672-713 limits assumed): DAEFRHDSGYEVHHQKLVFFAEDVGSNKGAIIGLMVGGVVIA
Summary of the method: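 Aβ42 (DMSO stock, pre-warmed 15 min at 37 °C) at 20 μmol/L final incubated with antipsychotics at TPC and 1/2 × TPC, with 5 µmol/L ThT added. Fluorescence (Ex/Em 440/484 nm, room temperature) read at 10, 30, 60, 90 min, 24 and 48 h; peptide-only control set as 100% aggregation.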

human erythrocytes = experiment: Methemoglobin formation in RBC with AAPH; assay type: cell-based; settings: 5 h, AAPH control 61.9%
Description: The blood samples were centrifuged (3000 rpm, 10 min, 20 °C, Micro 22 R centrifuge, Hettich Zentrifugen, Tuttlingen, Germany) to separate erythrocytes from the plasma and washed three times with 0.9% saline (NaCl). […] The erythrocytes were suspended in 0.9% saline. As control of basal hemolysis, erythrocytes were incubated with 0.9% NaCl. For total hemolysis control erythrocytes were incubated with 2.0% v/v Triton X-100. Incubation with Triton X-100 and K4[Fe(CN)6] (at concentration 50 g/L) was performed to control methemoglobin (MetHb) formation. Moreover, an antioxidant control containing ascorbic acid (AA) at a concentration of 10 µg/mL was prepared, while AAPH at a concentration of 50 mmol/L was an oxidizing agent. Antipsychotics at concentrations equaling their maximum therapeutic plasma concentrations (TPCmax), as well as 5-fold higher (5 × TPCmax) and 5-fold lower than TPCmax (1/5 × TPCmax), and the oxidizing agent AAPH at a concentration of 50 mmol/L, were added to 2% RBC suspension. Controls and tested samples were incubated at 37 °C. […] For each measurement, 0.5 mL samples were taken from incubated Eppendorf tubes and centrifuged (3000 rpm, 10 min). […] The percentage of hemolysis was calculated with the following formula:Hemolysis (%) = (Asample/Atotal hemolysis) × 100%(1) where Asample—absorbance of the test sample; Atotal hemolysis—the absorbance of the reference sample with 2% Triton X solution, corresponding to complete hemolysis.

BuChE = BuChE (Homo sapiens, UniProt P06276); experiment: Kinetic parameters of enzymatic reaction (Hanes–Woolf), BuChE; assay type: biochemical; parameters: The solution of plasma 200-fold diluted with 0.9% NaCl; from tissue; host or cells: citrated plasma from blood of healthy human donors
Sequence of BuChE (P06276 29-602): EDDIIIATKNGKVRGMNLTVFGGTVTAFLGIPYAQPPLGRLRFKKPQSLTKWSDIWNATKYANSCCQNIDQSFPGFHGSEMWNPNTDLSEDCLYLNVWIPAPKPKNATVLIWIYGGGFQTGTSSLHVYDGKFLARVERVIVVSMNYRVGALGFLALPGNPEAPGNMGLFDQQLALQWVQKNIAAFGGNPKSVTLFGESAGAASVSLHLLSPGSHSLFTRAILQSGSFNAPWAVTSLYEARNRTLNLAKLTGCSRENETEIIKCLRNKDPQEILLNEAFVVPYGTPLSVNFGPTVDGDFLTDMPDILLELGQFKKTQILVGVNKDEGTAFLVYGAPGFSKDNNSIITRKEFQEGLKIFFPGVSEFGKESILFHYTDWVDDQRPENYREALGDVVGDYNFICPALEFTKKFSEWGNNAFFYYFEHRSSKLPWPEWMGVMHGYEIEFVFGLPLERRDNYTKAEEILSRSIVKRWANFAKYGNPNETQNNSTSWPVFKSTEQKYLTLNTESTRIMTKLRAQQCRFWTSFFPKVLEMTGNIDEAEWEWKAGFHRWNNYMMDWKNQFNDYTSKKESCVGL
Description: Kinetic parameters were obtained on the basis of three individual experiments carried out on different biological materials. For this purpose, various concentrations of substrates (ATC and BTC) were used in experiments. The type of inhibition and kinetic parameters of enzymatic reactions were obtained by linear regression using the Hanes–Woolf equations.
AChE SI (selectivity index) was calculated by using the following formula: SI = IC50 of BuChE/IC50 of AChE. However, BuChE SI was defined as IC50 of AChE/IC50 of BuChE. Maximal velocity (Vmax) and the Michaelis constant (Km) were calculated with the use of linear regression—according to the Hanes–Woolf plot.

OCCOCCN1CCN(C2=Nc3ccccc3Sc3ccccc32)CC1 [Quetiapine, quetiapine]
effect on Aβ aggregation after a longer incubation time [1]: substantially inhibit
methemoglobin formation with AAPH (human erythrocytes; 80 μg/L): 17.1%
methemoglobin formation with AAPH (human erythrocytes; 400 μg/L): 18.8%
Vmax(i) BuChE (BuChE; compound at its IC50): 0.138 ± 0.058 A/min
Vmax(i) BuChE (BuChE; compound at ½ IC50): 0.239 ± 0.026 A/min
type of inhibition of BuChE (BuChE; from Km(i), Vmax(i) vs Km, Vmax, mixed inhibition): same type of inhibition
